Active and inactive are the calls of the source. The rule behind the calls is not given here.
Experiments:
B16-F10 = experiment: Antitumor activity against mouse B16-F10 cells allografted in C57/BL6 mouse assessed as reduction in tumor growth at 300 ug, IT administered every 2 days; type: functional, cell-based; conditions: dose 300.0 µg
MC-38 [1] = experiment: Antitumor activity against mouse MC38 cells allografted in C57/BL6 mouse assessed as increase in CD45+ T cells in tumor tissue at 300 ug, IT administered every 2 days by flow cytometry analysis; type: functional, cell-based; conditions: dose 300.0 µg
Human alphaherpesvirus 1 [2] = experiment: Antiviral activity against HSV-1-GFP infected in human THP-1 cells assessed as reduction in viral infection pre-infected with virus for 24 hrs followed by compound addition and measured after 6 hrs by flow cytometry analysis; type: functional, organism-based; conditions: dose 10-30 µM
THP-1 = experiment: Upregulation of IL6 mRNA level in STING-knockout human THP-1 cells at 20 uM measured for 4 hrs by qPCR analysis; type: functional, cell-based
[3] = molecular target: Stimulator of interferon genes protein (Homo sapiens) (UniProt Q86WV6); experiment: Binding affinity to human STING CTD assessed as change in protein denaturation temperature at 10 to 50 uM by thermal shift assay; conditions: filed as agonist, dose 10-50 µM
Sequence of Stimulator of interferon genes protein (Homo sapiens) (Q86WV6 whole entry): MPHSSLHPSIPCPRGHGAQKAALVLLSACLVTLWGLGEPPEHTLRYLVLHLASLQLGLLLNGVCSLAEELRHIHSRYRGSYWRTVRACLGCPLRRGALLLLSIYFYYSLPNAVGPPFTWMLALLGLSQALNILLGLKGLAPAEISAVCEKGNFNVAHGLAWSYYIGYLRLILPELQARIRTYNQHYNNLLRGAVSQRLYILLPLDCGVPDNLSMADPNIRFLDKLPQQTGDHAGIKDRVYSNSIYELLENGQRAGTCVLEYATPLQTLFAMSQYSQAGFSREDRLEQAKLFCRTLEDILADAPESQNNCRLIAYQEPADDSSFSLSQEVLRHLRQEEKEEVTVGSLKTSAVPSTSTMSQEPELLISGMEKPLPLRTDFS

Human alphaherpesvirus 1 [4] = experiment: Antiviral activity against HSV-1-GFP infected in human STING overexpressing HeLa cells assessed as reduction in viral infection by fluorescent microscopy analysis; type: functional, organism-based
MC-38 [5] = experiment: Antitumor activity against mouse MC38 cells allografted in C57/BL6 mouse assessed as increase in CD8+ T cell numbers in tumor tissues at 300 ug, IT administered every 2 days by immunohistochemical staining based analysis; type: functional; conditions: dose 300.0 µg
Human alphaherpesvirus 1 [6] = experiment: Antiviral activity against HSV-1-GFP infected in human HeLa cells assessed as reduction in viral infection by fluorescent microscopy analysis; type: functional, organism-based
[7] = molecular target: Stimulator of interferon genes protein (Homo sapiens) (UniProt Q86WV6); experiment: Agonist activity at STING in human THP-1 cells assessed as increase in IL6 mRNA level at 20 uM measured for 4 hrs by qPCR analysis; type: cell-based; conditions: filed as agonist
MC-38 [8] = experiment: Antitumor activity against mouse MC38 cells allografted in C57/BL6 mouse assessed as increase in CD8+ T cells in tumor tissue at 300 ug, IT administered every 2 days by flow cytometry analysis (reference value: 4.10%); type: functional; conditions: dose 300 µg

CC(NCCC(c1ccccc1)c1ccccc1)c1ccccc1 (stereo not given) [FENDILINE]
Activity (B16-F10): Active | Activity (MC-38 [1]): Active | Activity (Human alphaherpesvirus 1 [2]): Dose-Dependent Effect | Activity (THP-1): inactive | Activity [3]: Active | Activity (Human alphaherpesvirus 1 [4]): Active | Activity (MC-38 [5]): Active | Activity (Human alphaherpesvirus 1 [6]): Active | Activity [7]: Active | Activity (MC-38 [8]): 14.7%

Source: ChEMBL document CHEMBL5518165, “M335, a novel small-molecule STING agonist activates the immune response and exerts antitumor effects” (Eur J Med Chem, 2024)
